Reference: publication PMC1978516, “The PDZ Domain as a Complex Adaptive System” (PLoS ONE, 2007)
Ends that are not written are not given here.

What was measured:
[1] = test system: SAP97-PDZ2; experiment: peptide ELISA on immobilized GST-PDZ fusion; format: binding; settings: Fig. 3
From the text: (§1) Figure 3 Binding of 126 proteomic fragments (natural ligands) to six PDZ domains of PSD95 and SAP97. Binding histograms were obtained by peptide ELISA performed on purified GST fusions of the indicated domains immobilized in micro-titer plate wells as described previously. The X axis indicates the i.d. numbers of natural ligands (see Table S2). The Y axis indicates the peptide ELISA kinetics slope value in arbitrary units (a.u.). The 127th and 128th wells in each of the six sets were loaded with irrelevant peptides to indicate background signal. To illustrate internal consistency of the affinity evaluations obtained by peptide ELISA and their external consistency with the previously published affinity measurements, the reported affinities of the five PDZ domain-ligand pairs obtained by three different research groups using fluorescence polarization, [18], [32] are shown.
(§2) Wells of microtiter plates were coated with 1 µg of the indicated GST-PDZ domain fusions, washed with TBS-T and blocked with 1% BSA in the same way as described above for phage ELISA. Individual biotinylated peptides (30 ng) were pre-incubated with 1 µg of streptavidin-HRP conjugate (Pierce) in 300 µl of TBS-T for 30 min at RT. One hundred µl of the peptide-streptavidin-HRP conjugate were added to 100 µl of TBS-T left in each coated well after the final wash of the protein immobilization/blocking procedure. Microtiter plates were incubated for 1 hour at RT, and then washed 5 (x1mL) times with TBS-T. The amounts of peptides retained were quantified colorimetrically by adding soluble HRP substrate (ABTS/H2O2) and measuring ELISA kinetic slopes. ELISA readings were taken on a SpectraMAX190 plate reader (Molecular Devices) at 405 nm. To ensure reproducibility, all peptide ELISA experiments presented were repeated at least three times in at least three separate experiments performed by two different experimenters.

[2] = test system: PSD95-PDZ3; experiment: peptide ELISA on immobilized GST-PDZ fusion; format: binding; settings: Fig. 3
From the text: as §1, §2

[3] = test system: PSD95-PDZ2; experiment: peptide ELISA on immobilized GST-PDZ fusion; format: binding; settings: Fig. 3
From the text: as §1, §2

[4] = test system: PSD95-PDZ3; experiment: phage ELISA on immobilized GST-PDZ fusion; format: binding; settings: Fig. 1 and not shown
Procedure: Binding histograms were obtained by individual phage ELISA performed on purified GST fusions of the indicated domains immobilized in micro-titer plate wells [40]. For accurate relative affinity evaluations and cross-domain comparison, the slopes of individual ELISA kinetics were determined and normalized by the highest slope value in each of the six sets shown. The 96th well in each set was loaded with a library aliquot to indicate background. Axis X indicates identification (i.d.) numbers of individual artificial ligands (see individual ligand sequences together with their i.d. numbers in Table S1). Axis Y indicates the normalized relative affinity. The domain organization of the PSD95 and SAP97 proteins is shown above histograms.
GST fusion-coated microtiter ELISA plates (COSTAR) were prepared by passive immobilization of 1 µg of the indicated GST fusion proteins (Fig. 1) per well in 200 µl of 0.1M NaHCO3, pH 8.0, overnight at 4°C. Following protein coating, plates were blocked by adding 150 µl of 1% BSA in TBS for 1 hour at RT. Following incubation, the wells with immobilized target proteins were washed 5 (x1ml) times with TBS-T. One hundred µl of freshly prepared individual phage lysate was added to the ELISA plate wells and incubated for 1 hour at RT. Following incubation, unbound phages were washed away with TBS-T and the amount of retained phages was determined with polyclonal T7 phage-specific antibodies followed by monoclonal anti-rabbit antibodies conjugated to horseradish peroxidase (HRP) (Amersham Pharmacia). The individual phage ELISA kinetics were followed and quantified colorimetrically using soluble HRP substrate (ABTS/H2O2). ELISA readings were taken on a SpectraMAX190 plate reader (Molecular Devices) at 405 nm. To ensure reproducibility, each of the individual phage ELISA binding histograms presented was obtained at least three times in at least three separate experiments performed by two different experimenters.

[5] = test system: second PSD95 PDZ domain; settings: cited from earlier work
From the text: (§3) In order to gain insight into the pattern recognition differences of the PDZ domains that belong to the same class but are able to differentiate between peptide ligands sharing the class-defining C-terminal consensus, we investigated a particular case of this general puzzle, namely, the differences in recognition preferences between the second and third PDZ domains of PSD95, which are classified as type I PDZ domains but are known to discriminate between various X-(S/T)-X-(V/I/L)-COOH ligands, [18]. In Fig. 5A we compare two sets of C-terminal sequences. The first set represents the s ...

[6] = test system: first PSD95 PDZ domain; settings: cited from earlier work
From the text: as §3

[7] = test system: third PSD95 PDZ domain; settings: cited from earlier work
From the text: as §3

Substance | interaction with PSD95-PDZ3 in vitro [4] | interaction with the second PSD95 PDZ domain [5] | interaction with the first PSD95 PDZ domain [6] | interaction with the third PSD95 PDZ domain [7] | further results
ALPDGNIAESLESLV> [compound 018, N-terminally biotinylated 15-mer proteomic fragment, SWISS-PROT P23471, receptor-type tyrosine protein phosphatase zeta] | – | – | – | – | binding to the second PDZ domain of SAP97 [1]: bind to the second PDZ domains; binding to the third PDZ domain of PSD95 [2]: not to their third PDZ domains; binding to the second PDZ domain of PSD95 [3]: bind to the second PDZ domains
IADESDPAESMESLV> [compound 017, N-terminally biotinylated 15-mer proteomic fragment, SWISS-PROT P23470, receptor-type tyrosine protein phosphatase gamma] | – | – | – | – | binding to the second PDZ domain of SAP97 [1]: bind to the second PDZ domains; binding to the third PDZ domain of PSD95 [2]: not to their third PDZ domains; binding to the second PDZ domain of PSD95 [3]: bind to the second PDZ domains
TTGKKRRWYHSF> [compound 19] | interacts selectively and with reasonable affinity | – | – | – | –
VNKSKLLTDV-OH [Kv1.1] | – | bind | bind | fail to interact | –
VNITKMLTDV-OH [Kv1.2] | – | bind | bind | fail to interact | –
KKMPSIESDV-OH [NR2A] | – | bind | bind | fail to interact | –
TRGTKRSWYHSF> [compound 17] | interacts selectively and with reasonable affinity | – | – | – | –
EKLSSIESDV-OH [NR2B] | – | bind | bind | fail to interact | –
TSGTKRSWYHSF> [compound 18] | interacts selectively and with reasonable affinity | – | – | – | –
VNIKKIFTDV-OH [Kv1.3] | – | bind | bind | fail to interact | –
TRGTKRSWYYSF> [compound 20] | interacts selectively and with reasonable affinity | – | – | – | –
